Measurements published in US20050209157A1, “Short bioactive peptides and methods for their use” (priority 2001, published 2005).
No end group written: not given here.

Legend:
[1] = test system: Pseudomonas syringae pv. tabaci (PSPT)
[2] = test system: Pseudomonas solanacearum (PS)
S. aureus = test: Synergy of Shiva-1 and lysozyme, percent viability; assay type: cell-based, Staphylococcus aureus; settings: lysozyme 10×
Procedure: (§1) The percent viability of gram positive S. intermedius 19930, S. intermedius 20034, and S. aureus was determined relative to blank controls.

[3] = test system: Erwinia caratovora subsp. carotova (EC)
Pseudomonas aeruginosa = test: Synergy of Shiva-1 and lysozyme, percent viability; assay type: cell-based
Procedure: (§2) The percent viability of Pseudomonas aeruginosa was determined relative to blank controls.

S. intermedius 19930 = test: Synergy of Shiva-1 and lysozyme, percent viability; assay type: cell-based, Staphylococcus intermedius
Procedure: as §1

S. intermedius 20034 = test: Synergy of Shiva-1 and lysozyme, percent viability; assay type: cell-based, Staphylococcus intermedius; settings: lysozyme 10×
Procedure: as §1

[4] = test system: Xanthomonas campestris pv. campestris (XC)
[5] = Synergy of Shiva-1 and lysozyme, percent viability; assay type: cell-based, Staphylococcus aureus; settings: S. aureus
Procedure: as §1

[6] = Synergy of Shiva-1 and lysozyme, percent viability; assay type: cell-based, Pseudomonas aeruginosa; settings: Pseudomonas aeruginosa
Procedure: as §2

[7] = Synergy of Shiva-1 and lysozyme, percent viability; assay type: cell-based, Staphylococcus intermedius
Procedure: as §1

Lysozyme
LD50 [1]: >0.19 (key: > indicates greater than 1000.) | LD50 [2]: >16.0 (key: > indicates greater than 1000.) | percent viability (S. aureus; peptide concentration 0.01 μM): 100% | percent viability (S. aureus; peptide concentration 0.1 μM): 100% | percent viability (S. aureus; peptide concentration 0.5 μM): 100% | percent viability (S. aureus; peptide concentration 1 μM): 51.0% | percent viability (S. aureus; peptide concentration 5 μM): 18.4% | percent viability (S. aureus; peptide concentration 10 μM): 13.3% | percent viability (S. aureus; peptide concentration 50 μM): 9.5% | LD50 [3]: >0.44 (key: > indicates greater than 1000.) | percent viability (Pseudomonas aeruginosa; peptide concentration 0.01 μM, lysozyme at same molar concentration (1×), relative to blank controls): 100% | percent viability (Pseudomonas aeruginosa; peptide concentration 0.1 μM, lysozyme 1×): 82.2% | percent viability (Pseudomonas aeruginosa; peptide concentration 1 μM, lysozyme 1×): 52.1% | percent viability (Pseudomonas aeruginosa; peptide concentration 5 μM, lysozyme 1×): 7.9% | percent viability (Pseudomonas aeruginosa; peptide concentration 25 μM, lysozyme 1×): 0.4% | percent viability (S. intermedius 19930; peptide concentration 0.01 μM, lysozyme at ten times the molar concentration (10×)): 100% | percent viability (S. intermedius 19930; peptide concentration 0.1 μM, lysozyme 10×): 100% | percent viability (S. intermedius 19930; peptide concentration 0.5 μM, lysozyme 10×): 81.3% | percent viability (S. intermedius 19930; peptide concentration 1 μM, lysozyme 10×): 53% | percent viability (S. intermedius 19930; peptide concentration 5 μM, lysozyme 10×): 49.5% | percent viability (S. intermedius 19930; peptide concentration 10 μM, lysozyme 10×): 34.4% | percent viability (S. intermedius 19930; peptide concentration 50 μM, lysozyme 10×): 22% | percent viability (S. intermedius 20034; peptide concentration 0.01 μM): 100% | percent viability (S. intermedius 20034; peptide concentration 0.5 μM): 59.0% | percent viability (S. intermedius 20034; peptide concentration 5 μM): 38.3% | percent viability (S. intermedius 20034; peptide concentration 50 μM): 10.0% | LD50 [4]: >0.027 (key: > indicates greater than 1000.)

MPKWKVFKKIEKVGRNIRNGIVKAGPAIAVLGEAKALG-NH2 (C-terminus assumed) [SB-37]
LD50 [1]: 5.20 µM | LD50 [2]: 64.0 µM | viability at 0.01 µM [5]: 100% | viability at 0.1 µM [5]: 100% | viability at 0.5 µM [5]: 81% | viability at 1 µM [5]: 47.5% | viability at 5 µM [5]: 31.8% | viability at 10 µM [5]: 5.6% | viability at 50 µM [5]: 1.9% | LD50 [3]: 1.48 µM | viability at 0.01 µM [6]: 100% | viability at 0.1 µM [6]: 79.4% | viability at 1 µM [6]: 48.8% | viability at 5 µM [6]: 38.5% | viability at 25 µM [6]: 0% | viability at 0.01 µM ([7]; S. intermedius 19930): 100% | viability at 0.1 µM ([7]; S. intermedius 19930): 94.7% | viability at 0.5 µM ([7]; S. intermedius 19930): 69.4% | viability at 1 µM ([7]; S. intermedius 19930): 42.5% | viability at 5 µM ([7]; S. intermedius 19930): 36.1% | viability at 10 µM ([7]; S. intermedius 19930): 5.6% | viability at 50 µM ([7]; S. intermedius 19930): 0% | viability at 0.01 µM ([7]; S. intermedius 20034): 100% | viability at 0.5 µM ([7]; S. intermedius 20034): 68% | viability at 5 µM ([7]; S. intermedius 20034): 35.1% | viability at 50 µM ([7]; S. intermedius 20034): 0% | LD50 [4]: 0.57 µM
